These results are taken from ChEMBL document CHEMBL1129930, “Analogues of methotrexate in rheumatoid arthritis. 2. Effects of 5-deazaaminopterin, 5,10-dideazaaminopterin, and analogues on type II collagen-induced arthritis in mice” (J Med Chem, 1997).

The structures appear in SMILES notation.

Assay [1] deals with Mus musculus. Briefly: Tested for antiinflammatory activity on mouse type II collagen arthritis as Paw swelling of all animals in each group on day 37 at intraperitoneal dose of 6 mg/kg. In kind it is functional.
Assay [2] relates to Mus musculus. Briefly: Tested for antiinflammatory activity on mouse type II collagen arthritis as Paw swelling of all animals in each group on day 23 at intraperitoneal dose of 12 mg/kg. In kind it is functional.
Assay [3] relates to Mus musculus. Briefly: Tested for antiinflammatory activity on mouse type II collagen arthritis as Paw swelling of all animals in each group on day 30 at intraperitoneal dose of 12 mg/kg. The assay is classed as functional.
Assay [4] relates to Mus musculus. Briefly: Incidence of disease (mouse type II collagen) was scored as the percentage of animals within each experimental group that exhibited joint or limb inflammation on day 37 at intraperitoneal dose of 6 mg/kg. The assay is classed as functional.
The test system of assay [5] is Mus musculus. The assay is described as follows: Incidence of disease (mouse type II collagen) was scored as the percentage of animals within each experimental group that exhibited joint or limb inflammation on day 30 at intraperitoneal dose of 12 mg/kg. The assay is classed as functional.
For assay [6], the system named is Mus musculus. The assay is described as follows: Incidence of disease (mouse type II collagen) was scored as the percentage of animals within each experimental group that exhibited joint or limb inflammation on day 37 at intraperitoneal dose of 12 mg/kg. In kind it is functional.
Assay [7] has as its system Mus musculus. Briefly: Tested for antiinflammatory activity on mouse type II collagen arthritis as Paw swelling of all animals in each group on day 44 at intraperitoneal dose of 12 mg/kg. The assay is classed as functional.
Assay [8] concerns Mus musculus. Briefly: Incidence of disease (mouse type II collagen) was scored as the percentage of animals within each experimental group that exhibited joint or limb inflammation on day 44 at intraperitoneal dose of 12 mg/kg. In kind it is functional.
In assay [9] the test system is Mus musculus. The assay is described as follows: Tested for antiinflammatory activity on mouse type II collagen arthritis as Paw swelling of all animals in each group on day 30 at intraperitoneal dose of 6 mg/kg. In kind it is functional.
Assay [10] relates to Mus musculus. The assay is described as follows: Incidence of disease (mouse type II collagen) was scored as the percentage of animals within each experimental group that exhibited joint or limb inflammation on day 30 at intraperitoneal dose of 6 mg/kg. The assay is classed as functional.
Assay [11] relates to Mus musculus. The assay is described as follows: Tested for antiinflammatory activity on mouse type II collagen arthritis as Paw swelling of all animals in each group on day 23 at intraperitoneal dose of 6 mg/kg. In kind it is functional.
In assay [12] the test system is Mus musculus. The assay is described as follows: Incidence of disease (mouse type II collagen) was scored as the percentage of animals within each experimental group that exhibited joint or limb inflammation on day 44 at intraperitoneal dose of 6 mg/kg. In kind it is functional.
Assay [13] has as its system Mus musculus. The assay is described as follows: Incidence of disease (mouse type II collagen) was scored as the percentage of animals within each experimental group that exhibited joint or limb inflammation on day 23 at intraperitoneal dose of 6 mg/kg. The assay is classed as functional.
Assay [14] has as its system Mus musculus. Briefly: Incidence of disease (mouse type II collagen) was scored as the percentage of animals within each experimental group that exhibited joint or limb inflammation on day 23 at intraperitoneal dose of 12 mg/kg. The assay is classed as functional.
Assay [15] deals with Mus musculus. The assay is described as follows: Tested for antiinflammatory activity on mouse type II collagen arthritis as Paw swelling of all animals in each group on day 37 at intraperitoneal dose of 12 mg/kg. In kind it is functional.
For assay [16], the system named is Mus musculus. Briefly: Tested for antiinflammatory activity on mouse type II collagen arthritis as Paw swelling of all animals in each group on day 44 at intraperitoneal dose of 6 mg/kg. In kind it is functional.
A further assay has as its system L1210. The assay is described as follows: Concentration required to inhibit the growth of L1210 cells. The assay is classed as functional, cell-based. The note with it: Mus musculus.
Assay [17] can be described thus: Concentration required to inhibit the growth of chang liver cells. The assay is classed as functional. The note with it: Homo sapiens.
Assay [18] has as its system Mus musculus. The assay is described as follows: Tested for antiinflammatory activity on mouse type II collagen arthritis as Paw swelling of all animals in each group on day 30 at intraperitoneal dose of 3 mg/kg. The assay is classed as functional.
Assay [19] relates to Mus musculus. The assay is described as follows: Tested for antiinflammatory activity on mouse type II collagen arthritis as Paw swelling of all animals in each group on day 44 at intraperitoneal dose of 3 mg/kg. The assay is classed as functional.
The subject of assay [20] is Mus musculus. Briefly: Tested for antiinflammatory activity on mouse type II collagen arthritis as Paw swelling of all animals in each group on day 23 at intraperitoneal dose of 3 mg/kg. The assay is classed as functional.
Assay [21] relates to Mus musculus. Briefly: Incidence of disease (mouse type II collagen) was scored as the percentage of animals within each experimental group that exhibited joint or limb inflammation on day 37 at intraperitoneal dose of 3 mg/kg. The assay is classed as functional.
For assay [22], the system named is Mus musculus. The assay is described as follows: Incidence of disease (mouse type II collagen) was scored as the percentage of animals within each experimental group that exhibited joint or limb inflammation on day 23 at intraperitoneal dose of 3 mg/kg. In kind it is functional.
The test system of assay [23] is Mus musculus. Briefly: Incidence of disease (mouse type II collagen) was scored as the percentage of animals within each experimental group that exhibited joint or limb inflammation on day 30 at intraperitoneal dose of 3 mg/kg. In kind it is functional.
Assay [24] concerns Mus musculus. Briefly: Tested for antiinflammatory activity on mouse type II collagen arthritis as Paw swelling of all animals in each group on day 37 at intraperitoneal dose of 3 mg/kg. In kind it is functional.
Assay [25] relates to Mus musculus. Briefly: Incidence of disease (mouse type II collagen) was scored as the percentage of animals within each experimental group that exhibited joint or limb inflammation on day 44 at intraperitoneal dose of 3 mg/kg. The assay is classed as functional.

Take `Nc1nc(N)c2cc(CCc3ccc(C(=O)NC(CCC(=O)O)C(=O)O)cn3)cnc2n1` (stereo not drawn): the Paw swelling in the assay on Mus musculus [1] was 2.61 mm; in the assay on Mus musculus [2] it was 2.1 mm; in the assay with Mus musculus [3] it was 2.28 mm; in the assay on Mus musculus [7], 2.67 mm; in the assay on Mus musculus [9], 2.39 mm; in the assay on Mus musculus [11], 2.12 mm. Besides, the Paw swelling worked out at 2.5 mm with Mus musculus [15] and 2.86 mm in the assay on Mus musculus [16]. Further, the Animals in the assay with Mus musculus [4] is 88%; in the assay with Mus musculus [5], 62%; in the assay with Mus musculus [6] it was 88%; in the assay with Mus musculus [8], 88%; with Mus musculus [10] it was 88%; with Mus musculus [12], 88%. Besides, the Animals with Mus musculus [13] and in the assay with Mus musculus [14] was 0% each time.

For the compound `Cc1c(CCc2ccc(C(=O)NC(CCC(=O)O)C(=O)O)cn2)cnc2nc(N)nc(N)c12` (stereo not drawn), the IC50 – broadly, the concentration needed to halve the response being measured – turned out to be 0.629 µM in the assay with L1210 and 4.11 µM in assay [17]. Further, the Paw swelling in the assay with Mus musculus [1] is 2.59 mm; in the assay on Mus musculus [2], 2.16 mm; in the assay with Mus musculus [3], 2.33 mm; in the assay on Mus musculus [7], 2.66 mm; in the assay on Mus musculus [9], 2.22 mm; with Mus musculus [11], 2.16 mm. The figures for the Paw swelling in the assay with Mus musculus [15] and with Mus musculus [16] were 2.69 mm and 2.55 mm, respectively. The Animals in the assay on Mus musculus [4] stood at 38%; in the assay with Mus musculus [5] it was 38%; in the assay on Mus musculus [6] it was 62%; with Mus musculus [8], 75%; with Mus musculus [10], 25%; in the assay with Mus musculus [12], 75%. Moreover, the Animals in the assay with Mus musculus [13] and with Mus musculus [14] was 0% throughout.

Consider `C#CCN(Cc1cnc2nc(N)nc(N)c2c1CC)c1ccc(C(=O)NC(CCC(=O)O)C(=O)O)cc1` (stereo not drawn), for which the Paw swelling in the assay on Mus musculus [1] worked out at 2.21 mm; with Mus musculus [18], 2.16 mm; with Mus musculus [19], 2.39 mm; in the assay on Mus musculus [2], 2.22 mm; in the assay on Mus musculus [3], 2.2 mm; with Mus musculus [20], 2.13 mm. Further, the Paw swelling in the assay on Mus musculus [7] was 2.2 mm; with Mus musculus [9] it was 2.16 mm; in the assay on Mus musculus [11] it was 2.17 mm; in the assay on Mus musculus [24] it was 2.24 mm; in the assay with Mus musculus [15], 2.23 mm; with Mus musculus [16] it was 2.2 mm. For the same compound, the Animals with Mus musculus [4] is on record as 25%; in the assay on Mus musculus [5] it was 12%; in the assay with Mus musculus [6] it was 25%; in the assay on Mus musculus [8], 25%; in the assay with Mus musculus [21], 25%; with Mus musculus [22], 0%. The Animals in the assay with Mus musculus [23] came to 12%; with Mus musculus [10], 12%; in the assay on Mus musculus [12], 25%; in the assay with Mus musculus [13], 0%; in the assay on Mus musculus [14], 12%; in the assay on Mus musculus [25] it was 25%.
